Measured values: US10722514B2 (FLX Bio, Inc., priority 2017, dated 2020)

Target: T1, recombinant full-length USP7 (Homo sapiens, UniProt Q93009)
T1 construct: A 25 μl reaction volume containing recombinant full-length USP7 (62 pM)
Assay: USP7-mediated ubiquitin-rhodamine cleavage assay
Format: biochemical
Conditions: recombinant full-length USP7 62 pM; ubiquitin-rhodamine 100 nM; 30-minute incubation with compound, 1 hour reaction at room temperature; read-out: Potency: USP7 IC50
Procedure, shortened: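 After compound and enzyme (62 pM) sat together 30 min at RT, 100 nM fluorogenic ubiquitin-rhodamine substrate was added for 1 h protected from light. Acetic acid quenched the reaction prior to the fluorescence read.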

T1 sequence (Q93009 whole entry): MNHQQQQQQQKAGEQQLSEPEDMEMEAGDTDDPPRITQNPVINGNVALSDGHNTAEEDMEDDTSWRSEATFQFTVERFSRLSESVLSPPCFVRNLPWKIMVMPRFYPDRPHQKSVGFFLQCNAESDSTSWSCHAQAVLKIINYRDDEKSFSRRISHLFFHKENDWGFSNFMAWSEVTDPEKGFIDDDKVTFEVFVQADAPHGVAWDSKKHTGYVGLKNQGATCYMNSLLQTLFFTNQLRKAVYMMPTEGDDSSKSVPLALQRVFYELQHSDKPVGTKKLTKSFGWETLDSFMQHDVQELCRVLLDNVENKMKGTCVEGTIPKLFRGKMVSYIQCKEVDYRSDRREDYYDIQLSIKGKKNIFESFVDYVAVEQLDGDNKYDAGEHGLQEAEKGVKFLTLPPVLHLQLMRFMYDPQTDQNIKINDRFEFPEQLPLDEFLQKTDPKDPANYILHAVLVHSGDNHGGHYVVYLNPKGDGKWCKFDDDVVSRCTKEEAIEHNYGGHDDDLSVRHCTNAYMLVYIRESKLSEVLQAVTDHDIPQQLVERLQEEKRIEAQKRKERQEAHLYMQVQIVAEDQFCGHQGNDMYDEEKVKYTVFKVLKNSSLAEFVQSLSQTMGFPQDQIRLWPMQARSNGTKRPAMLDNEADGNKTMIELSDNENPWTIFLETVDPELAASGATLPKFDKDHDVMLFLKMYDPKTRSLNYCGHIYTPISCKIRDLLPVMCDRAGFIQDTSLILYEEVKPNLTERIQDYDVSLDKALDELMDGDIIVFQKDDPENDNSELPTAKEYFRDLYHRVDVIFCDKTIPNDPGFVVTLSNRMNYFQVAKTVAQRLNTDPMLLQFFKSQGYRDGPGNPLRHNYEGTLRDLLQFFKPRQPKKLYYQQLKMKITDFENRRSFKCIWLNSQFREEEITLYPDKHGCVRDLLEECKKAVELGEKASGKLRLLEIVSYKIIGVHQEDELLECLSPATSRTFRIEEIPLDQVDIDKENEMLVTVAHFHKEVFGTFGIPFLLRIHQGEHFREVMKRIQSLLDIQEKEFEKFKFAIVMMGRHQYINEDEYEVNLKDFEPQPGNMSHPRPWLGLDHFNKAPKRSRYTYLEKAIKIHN

| SMILES | IC50 [nM] |
| --- | --- |
| Cc1cc(Cl)cc(-c2ncnc3cc(CN4C(=O)CCCC4=O)sc23)c1O[C@H]1CCCNC1 [Example 260, (S)-1-((4-(5-Chloro-3-methyl-2-(piperidin-3-yloxy)phenyl)thieno[3,2-d]pyrimidin-6-yl)methyl)piperidine-2,6-dione] | < 1000 |
| CCC(O)c1cc2nccc(-c3cc(Cl)cc(C)c3OC3CCNCC3)c2s1 (centres unmarked) [Example 261, 1-(7-(5-Chloro-3-methyl-2-(piperidin-4-yIoxy)phenyl)thieno[3,2-b]pyridin-2-yl)propan-1-ol] | 1000 to 10000 |
| Cc1cc(Cl)cc(-c2ncnc3ccsc23)c1O[C@H]1CCCNC1 [Example 262, (S)-4-(5-Chloro-3-methyl-2-(piperidin-3-yloxy)phenyl)thieno[3,2-d]pyrimidine] | 10000 to 30000 |
| CC(=O)NCc1cc2nccc(-c3cc(Cl)cc(C)c3O[C@H]3CCCNC3)c2s1 [Example 263, (S)—N-((7-(5-Chloro-3-methyl-2-(piperidin-3-yloxy)phenyl)thieno[3,2-b]pyridin-2-yl)methyl)acetamide] | 1000 to 10000 |
| Cc1cc(Cl)cc(-c2ccnc3ccsc23)c1OC1CCCCNC1 (centres unmarked) [Example 264, 7-(2-(Azepan-3-yloxy)-5-chloro-3-methylphenyl)thieno[3,2-b]pyridine] | 10000 to 30000 |
| CCC(O)c1cc2nccc(-c3cc(Cl)cc(C)c3OC3CCCCNC3)c2s1 (centres unmarked) [Example 265, 1-(7-(2-(Azepan-3-yloxy)-5-chloro-3-methylphenyl)thieno[3,2-b]pyridin-2-yl)propan-1-ol] | 1000 to 10000 |
| Cc1cc(Cl)cc(-c2ccnc3ccsc23)c1OC1CCCNCC1 (centres unmarked) [Example 266, 7-(2-(Azepan-4-yloxy)-5-chloro-3-methylphenyl)thieno[3,2-b]pyridine] | 1000 to 10000 |
| CCC(O)c1cc2nccc(-c3cc(Cl)cc(C)c3OC3CCCNCC3)c2s1 (centres unmarked) [Example 267, 1-(7-(2-(Azepan-4-yloxy)-5-chloro-3-methylphenyl)thieno[3,2-b]pyridin-2-yl)propan-1-ol] | 1000 to 10000 |
| Cc1cc(Cl)cc(-c2ccnc3cc(CN4C(=O)CCC4=O)sc23)c1O[C@H]1CCCCNC1 [Example 268, (S)-1-((7-(2-(azepan-3-yloxy)-5-chloro-3-methylphenyl)thieno[3,2-b]pyridin-2-yl)methyl)pyrrolidine-2,5-dione] | < 1000 |
| Cc1cc(Cl)cc(-c2ccnc3cc(CN4C(=O)CCC4=O)sc23)c1O[C@H]1CCCNCC1 [Example 269, (S)-1-((7-(2-(Azepan-4-yloxy)-5-chloro-3-methylphenyl)thieno[3,2-b]pyridin-2-yl)methyl)pyrrolidine-2,5-dione] | < 1000 |
| Cc1cc(Cl)cc(-c2ccnc3cc(CN4C(=O)CCC4=O)sc23)c1O[C@@H]1CCCNCC1 [Example 270, (R)-1-((7-(2-(Azepan-4-yloxy)-5-chloro-3-methylphenyl)thieno[3,2-b]pyridin-2-yl)methyl)pyrrolidine-2,5-dione] | < 1000 |
| Cc1cc(Cl)cc(-c2ccnc3cc(CN4C(=O)CCC4=O)sc23)c1OC1CNCCOC1 (centres unmarked) [Example 271, 1-((7-(2-((1,4-Oxazepan-6-yl)oxy)-5-chloro-3-methylphenyl)thieno[3,2-b]pyridin-2-yl)methyl)pyrrolidine-2,5-dione] | 1000 to 10000 |
| Cc1cc(Cl)cc(-c2ccnc3cc(Cn4c(=O)ccn(CC(F)(F)F)c4=O)sc23)c1OC1CCNCC1C(F)(F)F (centres unmarked) [Example 272, 3-((7-(5-Chloro-3-methyl-2-((3-(trifluoromethyl)piperidin-4-yl)oxy)phenyl)thieno[3,2-b]pyridin-2-yl)methyl)-1-(2,2,2-trifluoroethyl)pyrimidine-2,4(1H,3H)-dione] | < 1000 |
| Cc1cc(Cl)cc(-c2ccnc3cc(Cn4c(=O)ccn(CC(F)(F)F)c4=O)sc23)c1O[C@@H]1CCN(C)C[C@@H]1C [Example 273, 3-((7-(5-Chloro-2-(((3S,4R)-1,3-dimethylpiperidin-4-yl)oxy)-3-methylphenyl)thieno[3,2-b]pyridin-2-yl)methyl)-1-(2,2,2-trifluoroethyl)pyrimidine-2,4(1H,3H)-dione] | < 1000 |
| Cc1cc(Cl)cc(-c2ccnc3cc(Cn4c(=O)ccn(CC(F)(F)F)c4=O)sc23)c1OC1(C(F)(F)F)CCCNC1 (centres unmarked) [Example 274, 3-((7-(5-Chloro-3-methyl-2-((3-(trifluoromethy)piperidin-3-yl)oxy)phenyl)thieno[3,2-b]pyridin-2-yl)methyl)-1-(2,2,2-trifluoroethyl)pyrimidine-2,4(1H,3H)-dione] | < 1000 |
| Cc1cc(Cl)cc(-c2ccnc3cc(Cn4c(=O)ccn(CC(F)(F)F)c4=O)sc23)c1O[C@@H]1CCNC[C@H]1C [Example 275, 3-((7-(5-Chloro-3-methyl-2-(((3R,4R)-3-methylpiperidin-4-yl)oxy)phenyl)thieno[3,2-b]pyridin-2-yl)methyl)-1-(2,2,2-trifluoroethyl)pyrimidine-2,4(1H,3H)-dione] | < 1000 |
| Cc1cc(Cl)cc(-c2ccnc3cc(Cn4c(=O)ccn(CC(F)(F)F)c4=O)sc23)c1O[C@@H]1CCNC[C@@]1(C)F [Example 276, 3-((7-(5-Chloro-2-(((3R,4R)-3-fluoro-3-methylpiperidin-4-yl)oxy)-3-methylphenyl)thieno[3,2-b]pyridin-2-yl)methyl)-1-(2,2,2-trifluoroethyl)pyrimidine-2,4(1H,3H)-dione] | < 1000 |
| Cc1cc(Cl)cc(-c2ccnc3cc(Cn4c(=O)ccn(CC(F)(F)F)c4=O)sc23)c1O[C@H]1C[C@H](N)C1 [Example 277, 3-((7-(2-((1r,3r)-3-Aminocyclobutoxy)-5-chloro-3-methylphenyl)thieno[3,2-b]pyridin-2-yl)methyl)-1-(2,2,2-trifluoroethyl)pyrimidine-2,4(1H,3H)-dione] | < 1000 |
| Cc1cc(Cl)cc(-c2ccnc3cc(Cn4c(=O)ccn(CC(F)(F)F)c4=O)sc23)c1O[C@H]1C[C@H](N2CCOCC2)C1 [Example 278, 3-((7-(5-Chloro-3-methyl-2-((1r,3r)-3-morpholinocyclobutoxy)phenyl)thieno[3,2-b]pyridin-2-yl)methyl)-1-(2,2,2-trifluoroethyl)pyrimidine-2,4(1H,3H)-dione] | < 1000 |
| Cc1cc(Cl)cc(-c2ccnc3cc(Cn4c(=O)ccn(CC(F)(F)F)c4=O)sc23)c1OC1(C)CNC1 [Example 279, 3-((7-(5-Chloro-3-methyl-2-((3-methylazetidin-3-yl)oxy)phenyl)thieno[3,2-b]pyridin-2-yl)methyl)-1-(2,2,2-trifluoroethyl)pyrimidine-2,4(1H,3H)-dione] | < 1000 |
| Cc1cc(Cl)cc(-c2ccnc3cc(Cn4c(=O)ccn(CC(F)(F)F)c4=O)sc23)c1O[C@H]1CNCC[C@H]1C [Example 280, 3-((7-(5-Chloro-3-methyl-2-(((3R,4R)-4-methylpiperidin-3-yl)oxy)phenyl)thieno[3,2-b]pyridin-2-yl)methyl)-1-(2,2,2-trifluoroethyl)pyrimidine-2,4(1H,3H)-dione] | < 1000 |
| Cc1cc([N+](=O)[O-])cc(-c2ccnc3cc(Cn4c(=O)ccn(CC(F)(F)F)c4=O)sc23)c1Oc1cncc(N)c1 [Example 281, 3-[[7-[2-[(5-amino-3-pyridyl)oxy]-3-methyl-5-nitro-phenyl]thieno[3,2-b]pyridin-2-yl]methyl]-1-(2,2,2-trifluoroethyl)pyrimidine-2,4-dione] | < 1000 |
| Cc1cc(Cl)cc(-c2ccnc3cc(Cn4c(=O)ccn(C(C)(C)C)c4=O)sc23)c1O[C@H]1CCCNC1 [Example 282] | < 1000 |
| Cc1cc([N+](=O)[O-])cc(-c2ccnc3cc(Cn4c(=O)ccn(CC(F)(F)F)c4=O)sc23)c1OCc1cn[nH]c1 [Example 283, 3-[[7-[3-methyl-5-nitro-2-(1H-pyrazol-4-ylmethoxy)phenyl]thieno[3,2-b]pyridin-2-yl]methyl]-1-(2,2,2-trifluoroethyl)pyrimidine-2,4-dione; 2,2,2-trifluoroacetic acid] | < 1000 |
| Cc1cc(Cl)cc(-c2ccnc3cc(Cn4c(=O)ccn(CC(F)F)c4=O)sc23)c1O[C@H]1CCCNC1 [Example 284, 3-[[7-[5-chloro-3-methyl-2-[[(3S)-3-piperidyl]oxy]phenyl]thieno[3,2-b]pyridin-2-yl]methyl]-1-(2,2-difluoroethyl)pyrimidine-2,4-dione; 2,2,2-trifluoroacetic acid] | < 1000 |
| Cc1cc(Cl)cc(-c2ccnc3cc(Cn4c(=O)ccn(C5CC5)c4=O)sc23)c1O[C@H]1CCCNC1 [Example 285, 3-[[7-[5-chloro-3-methyl-2-[[(3S)-3-piperidyl]oxy]phenyl]thieno[3,2-b]pyridin-2-yl]methyl]-1-cyclopropyl-pyrimidine-2,4-dione; 2,2,2-trifluoroacetic acid] | < 1000 |
| Cc1cc(Cl)cc(-c2ccnc3cc(Cn4c(=O)ccn(CC(F)(F)F)c4=O)sc23)c1O[C@H]1CCC(C)(C)NC1 [Example 286, 3-[[7-[5-chloro-2-[[(3S)-6,6-dimethyl-3-piperidyl]oxy]-3-methyl-phenyl]thieno[3,2-b]pyridin-2-yl]methyl]-1-(2,2,2-trifluoroethyl)pyrimidine-2,4-dione; 2,2,2-trifluoroacetic acid] | < 1000 |
| Cc1cc(Cl)cc(-c2ccnc3cc([C@H](C)n4c(=O)ccn(C)c4=O)sc23)c1O[C@H]1CCCNC1 [Example 287, 3-[(1S)-1-[7-[5-chloro-3-methyl-2-[[(3S)-3-piperidyl]oxy]phenyl]thieno[3,2-b]pyridin-2-yl]ethyl]-1-methyl-pyrimidine-2,4-dione; 2,2,2-trifluoroacetic acid] | < 1000 |
| Cc1cc(Cl)cc(-c2ccnc3cc([C@H](C)N4C(=O)C5CC5C4=O)sc23)c1O[C@H]1CCCNC1 (stereo partly drawn) [Example 288, 3-[(1S)-1-[7-[5-chloro-3-methyl-2-[[(3S)-3-piperidyl]oxy]phenyl]thieno[3,2-b]pyridin-2-yl]ethyl]-3-azabicyclo[3.1.0]hexane-2,4-dione; 2,2,2-trifluoroacetic acid] | < 1000 |
